The text below walks through data of publication PMC2632303 (Journal of molecular biology, 2008).

Test [1] has as its target T1, human 20S proteasome (Homo sapiens, UniProt P25788). The experiment in a line: Ki determinations, non-competitive kinetics with Suc-LLVY-AMC. In kind it is biochemical. As to conditions: for Ki relative to PR11: comparison of Table III values.
In a further test the test system is 20S proteasome. As to conditions: cited from earlier work.
For test [2], the target named is T1, human 20S proteasome. In words: Inhibition of chymotrypsin-like activity of 20S proteasome by PR-peptides. The class given is biochemical. As to conditions: same experiment as I50; n of Eq. 1.

Where no end group is shown, it is not given here.

Usually Ki stands for a dissociation constant, usually derived from enzyme kinetics or from competition with a known ligand. Read a high Ki as lower affinity. At human 20S proteasome [1], RRRPRPPYLPRW [Peptide W12] had a Ki of 39.5 nM.

On to RRRPRPPY [PR8], for which the “Inhibition of 20S proteasome” value in the test with 20S proteasome is “does not inhibit 20S proteasome”.

On human 20S proteasome [1], RRRPRPPYLPR [PR11] registered a Ki of 86.5 nM.

With “RRRPRPPYLPRPRPPPFFPPRLPPRIPPGFPPRFPPRFP [PR39]”, the “N (fractional occupation of PR-peptide on 20S proteasome, derived from curve-fitting)” value at human 20S proteasome [2] is 1.232.

As to RRRPRPPALPRW [Peptide A8W12], at human 20S proteasome [1], the Ki came out at 50.7 nM and the “Ki relative to PR11” value is “nearly half of PR11”. For RRRPRPPFLPRW [Peptide F8W12], in that order: 184 nM and “about two-fold greater than that of PR11”.
